Test results: patent US10610522B2, “Methods for retreating irritable bowel syndrome (IBS)” (Salix Pharmaceuticals, Inc., priority 2014, dated 2020)

System: d-IBS
Assay: Study of rifaximin BID doses vs placebo in subjects with d-IBS: adequate relief of IBS symptoms and bloating
Assay type: in vivo, human
Protocol: This example relates to a study of rifaximin in subjects with d-IBS. […] There were two measures of efficacy assessed. Subjects were questioned on the relief of overall IBS symptoms and bloating. […] The analyses defined success as a “yes” response to questions regarding adequate relief.
All subpopulations in the study responded to therapy. Baseline severity was determined using 7-point Lickert scales during screening for Abdominal Pain/Discomfort and Bloating, and the number, type (normal, hard, loose) and urgency of bowel movements.
Duration of effect was assessed in a follow-up period. Subjects that responded in the 4 week treatment period were followed for an additional 3 months.
The effect of treatment on the percentage of subjects who reported adequate relief of IBS and bloating symptoms for at least two of the final three weeks during the treatment phase (Weeks 1 to 4) is shown in Tables 5-7 and FIGS. 4-6 below.
The study assessed the effect over 12 weeks of follow-up on long-term adequate relief. Subjects who had adequate relief by Week 4 and remained symptom-free at Week 5 were followed during the post-treatment phase and shown in FIGS. 1 and 2. Superiority to placebo was maintained during the 12 weeks post-treatment follow-up. Results for IBS symptoms were RFX 550 mg BID 62.3% versus placebo 49.2%, and RFX 550 mg BID 59.3% versus 50.9% for placebo for the symptom of bloating through week 16. In assessing the follow-up data, there was statistical significance (p<0.05) of bloating and IBS symptoms for RFX 550 mg BID versus placebo.
Two measures of efficacy were assessed independently. The first was the proportion of subjects who provided a ‘yes’ response to the weekly SGA question: “In the past 7 days, have you had adequate relief of your IBS symptoms? (yes/no)”. The second endpoint was the proportion of subjects who provide a ‘yes’ response to the weekly individual symptom question: “In the past 7 days, have you had adequate relief of your symptom of bloating? (yes/no)”. Durability was based on the proportion of subjects that had adequate relief over the entire treatment phase.
It is reported herein that the severity of baseline symptoms of abdominal pain and bloating influenced the response to rifaximin treatment. The co-primary endpoints in this analysis assessed weekly yes/no responses to questions regarding adequate relief of global IBS symptoms and IBS-associated bloating. Severity of baseline IBS symptoms was evaluated as a potential confounder of clinical response and was categorized as mild/moderate or severe based on a mean score of ≤4 vs. >4 (on a 7-point scale) for bloating and abdominal pain.
The Weekly yes/no responses to questions regarding adequate relief of global IBS symptoms and IBS-associated bloating were assessed. Clinical response was defined as adequate relief for 2 of the final 3 treatment weeks (wk 2, 3, or 4). Severity of baseline IBS symptoms was evaluated as a potential confounder of clinical response and was categorized as mild/moderate or severe based on a mean score of ≤4 versus >4 (on a 7-point scale (0=not bothersome; 6=very bothersome)) for bloating and abdominal pain.

CO[C@H]1/C=C/O[C@@]2(C)Oc3c(C)c(O)c4c(O)c(c5c(nc6cc(C)ccn65)c4c3C2=O)NC(=O)/C(C)=C\C=C\[C@H](C)[C@H](O)[C@@H](C)[C@@H](O)[C@@H](C)[C@H](OC(C)=O)[C@@H]1C [Rifaximin, (2S,16Z,18E,20S,21S,22R,23R,24R,25S,26S,27S,28E)-5,6,21,23,25 Pentahydroxy-27-methoxy-2,4,11,16,20,22,24,26-octamethyl-2,7-(epoxypentadeca-(1,11,13)trienimino) benzofuro (4,5-e) pyrido(1,2-a) benzimidazole-1,15(2H)-dione,25-acetate]
Treatment effect, Bloating (Age <65): 6.8% | Treatment effect, IBS Sx (Age <65): 6.9% | Treatment effect, Bloating (Age ≥65): 3.2% | Treatment effect, IBS Sx (Age ≥65): 19.1% | Treatment effect, Bloating (Diabetes History N): 7.4% | Treatment effect, IBS Sx (Diabetes History N): 9.5% | Treatment effect, Bloating (Diabetes History Y): −5.6% | Treatment effect, IBS Sx (Diabetes History Y): −12.7% | Treatment effect, Bloating (Disease Duration 10-20 y): 11.7% | Treatment effect, IBS Sx (Disease Duration 10-20 y): 20.1% | Treatment effect, Bloating (Disease Duration >20 y): 35.1% | Treatment effect, IBS Sx (Disease Duration >20 y): 46.6% | Treatment effect, Bloating (Disease Duration ≤10 y): 2.8% | Treatment effect, IBS Sx (Disease Duration ≤10 y): 1.8% | Adequate relief of IBS symptoms at end of treatment phase, Failure (Female, RFX 275 2w): 46 (56.8%) n (%) | Adequate relief of IBS symptoms at end of treatment phase, Success (Female, RFX 275 2w): 35 (43.2%) n (%) | Adequate relief of bloating at end of treatment phase, Failure (Female, RFX 275 2w): 52 (64.2%) n (%) | Adequate relief of bloating at end of treatment phase, Success (Female, RFX 275 2w): 29 (35.8%) n (%) | Adequate relief of IBS symptoms at end of treatment phase, Failure (Female, RFX 550 2w): 66 (48.2%) n (%) | Adequate relief of IBS symptoms at end of treatment phase, Success (Female, RFX 550 2w): 71 (51.8%) n (%) | Adequate relief of bloating at end of treatment phase, Failure (Female, RFX 550 2w): 74 (54.0%) n (%) | Adequate relief of bloating at end of treatment phase, Success (Female, RFX 550 2w): 63 (46.0%) n (%) | Adequate relief of IBS symptoms at end of treatment phase, Failure (Female, RFX 550 4w): 42 (55.3%) n (%) | Adequate relief of IBS symptoms at end of treatment phase, Success (Female, RFX 550 4w): 34 (44.7%) n (%) | Adequate relief of bloating at end of treatment phase, Failure (Female, RFX 550 4w): 44 (57.9%) n (%) | Adequate relief of bloating at end of treatment phase, Success (Female, RFX 550 4w): 32 (42.1%) n (%) | Adequate relief of IBS symptoms at end of treatment phase, Failure (Female, RFX 1100 2w): 44 (60.3%) n (%) | Adequate relief of IBS symptoms at end of treatment phase, Success (Female, RFX 1100 2w): 29 (39.7%) n (%) | Adequate relief of bloating at end of treatment phase, Failure (Female, RFX 1100 2w): 45 (61.6%) n (%) | Adequate relief of bloating at end of treatment phase, Success (Female, RFX 1100 2w): 28 (38.4%) n (%) | Treatment effect, Bloating (Gender F): 3.9% | Treatment effect, IBS Sx (Gender F): 3.5% | Treatment effect, Bloating (Gender M): 13.6% | Treatment effect, IBS Sx (Gender M): 21% | Adequate relief of IBS symptoms at end of treatment phase, Failure (Male, RFX 275 2w): 9 (64.3%) n (%) | Adequate relief of IBS symptoms at end of treatment phase, Success (Male, RFX 275 2w): 5 (35.7%) n (%) | Adequate relief of bloating at end of treatment phase, Failure (Male, RFX 275 2w): 8 (57.1%) n (%) | Adequate relief of bloating at end of treatment phase, Success (Male, RFX 275 2w): 6 (42.9%) n (%) | Adequate relief of IBS symptoms at end of treatment phase, Failure (Male, RFX 550 2w): 25 (46.3%) n (%) | Adequate relief of IBS symptoms at end of treatment phase, Success (Male, RFX 550 2w): 29 (53.7%) n (%) | Adequate relief of bloating at end of treatment phase, Failure (Male, RFX 550 2w): 29 (53.7%) n (%) | Adequate relief of bloating at end of treatment phase, Success (Male, RFX 550 2w): 25 (46.3%) n (%) | Adequate relief of IBS symptoms at end of treatment phase, Failure (Male, RFX 550 4w): 15 (68.2%) n (%) | Adequate relief of IBS symptoms at end of treatment phase, Success (Male, RFX 550 4w): 7 (31.8%) n (%) | Adequate relief of bloating at end of treatment phase, Failure (Male, RFX 550 4w): 16 (72.7%) n (%) | Adequate relief of bloating at end of treatment phase, Success (Male, RFX 550 4w): 6 (27.3%) n (%) | Adequate relief of IBS symptoms at end of treatment phase, Failure (Male, RFX 1100 2w): 14 (53.8%) n (%) | Adequate relief of IBS symptoms at end of treatment phase, Success (Male, RFX 1100 2w): 12 (46.2%) n (%) | Adequate relief of bloating at end of treatment phase, Failure (Male, RFX 1100 2w): 16 (61.5%) n (%)
